Assay results: patent US10206394B2, “Herbicidal compounds” (Syngenta Participations AG, priority 2014, dated 2019)
Like-named read-outs stand apart in the source and are kept apart here.

Legend:
Experiment in all cases: Glasshouse assay for herbicidal activity (pre- and post-emergence), percentage phytotoxicity
Type in all cases: in vivo
[1] = test system: Alopecurus myosuroides (ALOMY); conditions: for pest or weed control at 250 g/ha: Alopecurus myosuroides
Experimental: (§1) Test—Glasshouse Assay for Herbicidal Activity
(§2) Seeds of a variety of monocotyledonous and dicotyledonous test plants are sown in standard soil in pots. The plants are cultivated for one day (for pre-emergence (PRE)) or for about 12 days (for post-emergence (POST)) under controlled conditions in a glasshouse (warm climate species at 24/18° C., cool climate species at 20/16° C., both at day/night; 16 hours light; 65% humidity).
(§3) The test plants are then grown on, in a glasshouse (greenhouse) under controlled conditions (warm climate species at 24/18° C., cool climate species at 20/16° C., both at day/night; 16 hours light; 65% humidity) and are watered twice daily. 15 days after application of the test herbicide (15 DAA) (for post-emergence), and 20 days after application of the test herbicide (20 DAA) (for pre-emergence), the test plants are evaluated visually, and an assessed percentage phytotoxicity score is given for each herbicidal application on each plant species (with 100%=total damage to plant; 0%=no damage to plant).
(§4) The plant species tested are as follows: Alopecurus myosuroides (ALOMY), Avena fatua (AVEFA), Lolium perenne (LOLPE), Echinochloa crus-galli (ECHCG).

Avena fatua (AVEFA) = conditions: Avena fatua
Experimental: as §1, §2, §3, §4

[2] = test system: Echinochloa crus-galli (ECHCG); conditions: Echinochloa crus-galli
Experimental: as §1, §2, §3, §4

Lolium perenne (LOLPE) = conditions: Lolium perenne
Experimental: as §1, §2, §3, §4

[3] = post-emergence, 360 h, Rate 250 g/ha, post-emergence, assessed visually 15 DAA, 100%=total damage, 0%=no damage, read-out: Post-emergence herbicidal activity (percentage phytotoxicity) ALOMY POST
[4] = post-emergence, 360 h, Rate 250 g/ha, post-emergence, assessed visually 15 DAA, 100%=total damage, 0%=no damage, read-out: Post-emergence herbicidal activity (percentage phytotoxicity) AVEFA POST
[5] = pre-emergence, 480 h, Rate 250 g/ha, pre-emergence, assessed visually 20 DAA, 100%=total damage, 0%=no damage, read-out: Pre-emergence herbicidal activity (percentage phytotoxicity) AVEFA PRE
[6] = post-emergence, 360 h, Rate 250 g/ha, post-emergence, assessed visually 15 DAA, 100%=total damage, 0%=no damage, read-out: Post-emergence herbicidal activity (percentage phytotoxicity) ECHCG POST
[7] = pre-emergence, 480 h, Rate 250 g/ha, pre-emergence, assessed visually 20 DAA, 100%=total damage, 0%=no damage, read-out: Pre-emergence herbicidal activity (percentage phytotoxicity) ECHCG PRE
[8] = post-emergence, 360 h, Rate 250 g/ha, post-emergence, assessed visually 15 DAA, 100%=total damage, 0%=no damage, read-out: Post-emergence herbicidal activity (percentage phytotoxicity) LOLPE POST
[9] = pre-emergence, 480 h, Rate 250 g/ha, pre-emergence, assessed visually 20 DAA, 100%=total damage, 0%=no damage, read-out: Pre-emergence herbicidal activity (percentage phytotoxicity) LOLPE PRE
[10] = post-emergence, 360 h, POST-emergence, rate 250 g/ha, visual score 15 DAA (100%=total damage, 0%=no damage), read-out: Post-emergence herbicidal activity (percentage phytotoxicity) ALOMY POST
[11] = pre-emergence, 480 h, PRE-emergence, rate 250 g/ha, visual score 20 DAA (100%=total damage, 0%=no damage), read-out: Pre-emergence herbicidal activity (percentage phytotoxicity) ALOMY PRE
[12] = post-emergence, 360 h, POST-emergence, rate 250 g/ha, visual score 15 DAA (100%=total damage, 0%=no damage), read-out: Post-emergence herbicidal activity (percentage phytotoxicity) AVEFA POST
[13] = pre-emergence, 480 h, PRE-emergence, rate 250 g/ha, visual score 20 DAA (100%=total damage, 0%=no damage), read-out: Pre-emergence herbicidal activity (percentage phytotoxicity) AVEFA PRE
[14] = post-emergence, 360 h, POST-emergence, rate 250 g/ha, visual score 15 DAA (100%=total damage, 0%=no damage), read-out: Post-emergence herbicidal activity (percentage phytotoxicity) ECHCG POST
[15] = pre-emergence, 480 h, PRE-emergence, rate 250 g/ha, visual score 20 DAA (100%=total damage, 0%=no damage), read-out: Pre-emergence herbicidal activity (percentage phytotoxicity) ECHCG PRE
[16] = post-emergence, 360 h, POST-emergence, rate 250 g/ha, visual score 15 DAA (100%=total damage, 0%=no damage), read-out: Post-emergence herbicidal activity (percentage phytotoxicity) LOLPE POST
[17] = pre-emergence, 480 h, PRE-emergence, rate 250 g/ha, visual score 20 DAA (100%=total damage, 0%=no damage), read-out: Pre-emergence herbicidal activity (percentage phytotoxicity) LOLPE PRE

SMILES	pest or weed control at 250 g/ha [1, 3]	pest or weed control at 250 g/ha (Avena fatua (AVEFA); [4])	pest or weed control at 250 g/ha (Avena fatua (AVEFA); [5])	pest or weed control at 250 g/ha [2, 6]	pest or weed control at 250 g/ha [2, 7]	pest or weed control at 250 g/ha (Lolium perenne (LOLPE); [8])	pest or weed control at 250 g/ha (Lolium perenne (LOLPE); [9])	pest or weed control at 250 g/ha [1, 10]	pest or weed control at 250 g/ha [1, 11]	pest or weed control at 250 g/ha (Avena fatua (AVEFA); [12])	pest or weed control at 250 g/ha (Avena fatua (AVEFA); [13])	pest or weed control at 250 g/ha [2, 14]	pest or weed control at 250 g/ha [2, 15]	pest or weed control at 250 g/ha (Lolium perenne (LOLPE); [16])	pest or weed control at 250 g/ha (Lolium perenne (LOLPE); [17])	other results
CCc1cc(OCC(F)(F)F)cc(C)c1C1C(=O)CC(CC(=O)N2CCOCC2)C1=O (stereo not shown) [Compound B164]																pest or weed control at 250 g/ha ([1]; post-emergence, 360 h, 250 g/ha, post-emergence, 15 DAA, visual assessment (100%=total damage, 0%=no damage), read-out: Post-emergence herbicidal activity (percentage phytotoxicity) ALOMY POST): 100%; pest or weed control at 250 g/ha ([1]; pre-emergence, 480 h, 250 g/ha, pre-emergence, 20 DAA, visual assessment (100%=total damage, 0%=no damage), read-out: Pre-emergence herbicidal activity (percentage phytotoxicity) ALOMY PRE): 100%; pest or weed control at 250 g/ha (Avena fatua (AVEFA); post-emergence, 360 h, 250 g/ha, post-emergence, 15 DAA, visual assessment (100%=total damage, 0%=no damage), read-out: Post-emergence herbicidal activity (percentage phytotoxicity) AVEFA POST): 90%; pest or weed control at 250 g/ha (Avena fatua (AVEFA); pre-emergence, 480 h, 250 g/ha, pre-emergence, 20 DAA, visual assessment (100%=total damage, 0%=no damage), read-out: Pre-emergence herbicidal activity (percentage phytotoxicity) AVEFA PRE): 100%; pest or weed control at 250 g/ha ([2]; post-emergence, 360 h, 250 g/ha, post-emergence, 15 DAA, visual assessment (100%=total damage, 0%=no damage), read-out: Post-emergence herbicidal activity (percentage phytotoxicity) ECHCG POST): 100%; pest or weed control at 250 g/ha ([2]; pre-emergence, 480 h, 250 g/ha, pre-emergence, 20 DAA, visual assessment (100%=total damage, 0%=no damage), read-out: Pre-emergence herbicidal activity (percentage phytotoxicity) ECHCG PRE): 100%; pest or weed control at 250 g/ha (Lolium perenne (LOLPE); post-emergence, 360 h, 250 g/ha, post-emergence, 15 DAA, visual assessment (100%=total damage, 0%=no damage), read-out: Post-emergence herbicidal activity (percentage phytotoxicity) LOLPE POST): 100%; pest or weed control at 250 g/ha (Lolium perenne (LOLPE); pre-emergence, 480 h, 250 g/ha, pre-emergence, 20 DAA, visual assessment (100%=total damage, 0%=no damage), read-out: Pre-emergence herbicidal activity (percentage phytotoxicity) LOLPE PRE): 100%
Cc1cc(-c2cnc(Cl)cn2)cc(C)c1C1C(=O)CC(CC(=O)NCc2cccc(C(F)(F)F)c2)C1=O (stereo not shown) [Compound A133]	90%	100%	90%	100%	90%	80%	80%									Pre-emergence herbicidal activity (percentage phytotoxicity) ALOMY PRE ([1]; Rate 250 g/ha, pre-emergence, assessed visually 20 DAA, 100%=total damage, 0%=no damage): 30%
Cc1cc(C)c(C2C(=O)CC(CC(=O)NCc3ccccc3C#N)C2=O)c(C)c1 (stereo not shown) [Compound A108]	0%	60%	0%	20%	30%	60%	80%									pest or weed control at 250 g/ha ([1]; pre-emergence, 480 h, Rate 250 g/ha, pre-emergence, assessed visually 20 DAA, 100%=total damage, 0%=no damage, read-out: Pre-emergence herbicidal activity (percentage phytotoxicity) ALOMY PRE): 0%
CCCNC(=O)CC1CC(=O)C(c2c(C)cc(-n3cc(Cl)cn3)cc2C)C1=O (stereo not shown) [Compound B314, 2-[3-[4-(4-chloropyrazol-1-yl)-2,6-dimethyl-phenyl]-2,4-dioxo-cyclopentyl]-N-propyl-acetamide]								100%	100%	100%	90%	80%	100%	90%	90%	
CCc1cc(C)cc(C)c1C1C(=O)CC(CC(=O)NC(C)C)C1=O (stereo not shown) [Compound B255]								100%	100%	100%	80%	100%	100%	100%	100%	
